The results in this text go back to the supplement of paper PMC10331698.

What all share (experiment): level (log10 ratio to DMSO vehicle control); higher = higher biomarker level / cell amount than vehicle control
What all share (details): in DMSO

Compound in assay [1]: O=C(O)CCC(F)(F)C(F)(F)C(F)(F)F [3:3 Fluorotelomer carboxylic acid]
The protocol:
(§1)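 BioMAP Diversity Plus panel of 12 human primary cell co-culture systems (3C, 4H, LPS, SAg, BT, BF4T, BE3C, CASM3C, HDF3CGF, KF3CT, MyoF, Mphg). Compounds were added 1 h before stimulation and left for 24 h (MyoF 48 h; BT 72 h for soluble read-outs or 6 d for IgG). Biomarkers were read by ELISA, cytotoxicity by SRB, PBMC viability and proliferation by Alamar Blue. Each well value was divided by the mean of 8 DMSO control wells on the same plate and log10 transformed; duplicate blinded samples were tested at 4 concentrations.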

Compound in assay [2]: O=S(=O)(O)C(F)(F)C(F)(F)C(F)(F)C(F)(F)C(F)(F)C(F)(F)C(F)(F)C(F)(F)F [Potassium perfluorooctanesulfonate]
The protocol: as §1

Compound in assay [3]: O=S(=O)(O)C(F)(F)C(F)(F)C(F)(F)C(F)(F)C(F)(F)C(F)(F)C(F)(F)C(F)(F)F [Perfluorooctanesulfonic acid]
The protocol: as §1

Compound in assay [4]: Cn1cnc([N+](=O)[O-])c1Sc1ncnc2[nH]cnc12 [Azathioprine]
On the procedure:
as §1

Compound in assay [5]: C=CC(=O)OCCC(F)(F)C(F)(F)C(F)(F)C(F)(F)F [2-(Perfluorobutyl)ethyl acrylate]
On the procedure: as §1

Compound in assay [6]: FC(F)(F)C(F)(F)C(F)(F)C(F)(F)C(F)(F)C(F)(F)C(F)(F)CCI [1-Iodo-1H,1H,2H,2H-perfluorononane]
On the procedure: as §1

± gives the standard deviation of the averaged measurements.

Take BF4T:SRB: the “level (log10)” value in assay [1] (6700 nM) was -0.008 ± 0.0057; in assay [1] (20000 nM) it was -0.0105 ± 0.0035; in assay [1] (60000 nM), 0 ± 0.0014; in assay [2] (6700 nM), -0.01 ± 0.011; in assay [2] (20000 nM) it was -0.01 ± 0.0099; in assay [2] (60000 nM) it was -0.002 ± 0.0099. Further, the “level (log10)” value in assay [3] (6700 nM) was -0.0095 ± 0.0092; in assay [3] (20000 nM), -0.0115 ± 0.0021; in assay [3] (60000 nM) it was -0.0015 ± 0.026; in assay [4] (1400 nM), 0.016 ± 0.014; in assay [4] (4200 nM) it was -0.0045 ± 0.0092; in assay [4] (13000 nM) it was -0.0025 ± 0.0021. For the same test system, the “level (log10)” value in assay [4] (38000 nM) is -0.005 ± 0.0028; in assay [5] (6700 nM), -0.003 ± 0.0014; in assay [5] (20000 nM) it was -0.005; in assay [5] (60000 nM), -0.0085 ± 0.0021; in assay [6] (6700 nM) it was -0.001 ± 0.0042; in assay [6] (20000 nM), 0.001 ± 0.0042.

For the test system LPS:CD141/Thrombomodulin, the “level (log10)” value in assay [1] (6700 nM) was -0.0175 ± 0.022; in assay [1] (20000 nM) it was -0.001 ± 0.013; in assay [1] (60000 nM) it was 0.0035 ± 0.036; in assay [2] (6700 nM), -0.0225 ± 0.028; in assay [2] (20000 nM) it was -0.0215 ± 0.023; in assay [2] (60000 nM) it was -0.025 ± 0.044. The “level (log10)” value is -0.03 ± 0.0014 in assay [3] (6700 nM); -0.01 ± 0.0071 in assay [3] (20000 nM); -0.036 ± 0.031 in assay [3] (60000 nM); 0.046 ± 0.061 in assay [4] (1400 nM); 0.04 ± 0.037 in assay [4] (4200 nM); 0.0455 ± 0.035 in assay [4] (13000 nM). Also, the “level (log10)” value was -0.0055 ± 0.067 in assay [4] (38000 nM); -0.0365 ± 0.019 in assay [5] (6700 nM); -0.03 ± 0.014 in assay [5] (20000 nM); -0.038 ± 0.021 in assay [5] (60000 nM); -0.0265 ± 0.0021 in assay [6] (6700 nM); -0.024 ± 0.0057 in assay [6] (20000 nM).

For the test system LPS:CD142/Tissue Factor, the “level (log10)” value in assay [1] (6700 nM) is -0.014 ± 0.0014; in assay [1] (20000 nM), -0.014 ± 0.011; in assay [1] (60000 nM), -0.0015 ± 0.019; in assay [2] (6700 nM), -0.0095 ± 0.019; in assay [2] (20000 nM), -0.004 ± 0.0028; in assay [2] (60000 nM) it was -0.002. The “level (log10)” value in assay [3] (6700 nM) was -0.0135 ± 0.00071; in assay [3] (20000 nM), -0.0265 ± 0.019; in assay [3] (60000 nM), -0.0105 ± 0.0092; in assay [4] (1400 nM), 0.042 ± 0.028; in assay [4] (4200 nM), 0.014 ± 0.0042; in assay [4] (13000 nM), 0.0375 ± 0.0064. The “level (log10)” value is -0.0085 ± 0.044 in assay [4] (38000 nM); 0.027 ± 0.016 in assay [5] (6700 nM); -0.027 ± 0.088 in assay [5] (20000 nM); -0.177 ± 0.12 in assay [5] (60000 nM); 0.046 ± 0.073 in assay [6] (6700 nM); -0.0215 ± 0.09 in assay [6] (20000 nM).

LPS:SRB: the “level (log10)” value is -0.008 ± 0.0014 in assay [1] (6700 nM); -0.0025 ± 0.0064 in assay [1] (20000 nM); 0.0065 ± 0.0064 in assay [1] (60000 nM); -0.009 ± 0.018 in assay [2] (6700 nM); -0.007 ± 0.021 in assay [2] (20000 nM); -0.001 ± 0.0057 in assay [2] (60000 nM). Besides, the “level (log10)” value in assay [3] (6700 nM) is -0.003 ± 0.0085; in assay [3] (20000 nM), -0.003 ± 0.0028; in assay [3] (60000 nM), 0; in assay [4] (1400 nM), -0.002 ± 0.0099; in assay [4] (4200 nM) it was -0.0105 ± 0.0078; in assay [4] (13000 nM), -0.0215 ± 0.013. In addition, the “level (log10)” value is -0.039 ± 0.014 in assay [4] (38000 nM); 0.0015 ± 0.012 in assay [5] (6700 nM); -0.0015 ± 0.0035 in assay [5] (20000 nM); -0.013 ± 0.013 in assay [5] (60000 nM); 0.0125 ± 0.0064 in assay [6] (6700 nM); 0.019 ± 0.017 in assay [6] (20000 nM).

In the case of BF4T:MMP-1, the “level (log10)” value in assay [1] (6700 nM) is 0.0005 ± 0.0064; in assay [1] (20000 nM), -0.0065 ± 0.011; in assay [1] (60000 nM), -0.005 ± 0.027; in assay [2] (6700 nM), 0.028 ± 0.017; in assay [2] (20000 nM) it was 0.046 ± 0.0028; in assay [2] (60000 nM) it was 0.062 ± 0.011. Also, the “level (log10)” value in assay [3] (6700 nM) was 0.02 ± 0.0014; in assay [3] (20000 nM), 0.029 ± 0.013; in assay [3] (60000 nM) it was 0.039 ± 0.047; in assay [4] (1400 nM), 0 ± 0.014; in assay [4] (4200 nM) it was -0.001 ± 0.0042; in assay [4] (13000 nM), -0.003 ± 0.0042. The “level (log10)” value in assay [4] (38000 nM) is 0.019 ± 0.025; in assay [5] (6700 nM) it was -0.003 ± 0.044; in assay [5] (20000 nM) it was -0.003 ± 0.051; in assay [5] (60000 nM), 0.047 ± 0.031; in assay [6] (6700 nM) it was 0.001 ± 0.035; in assay [6] (20000 nM), 0.016 ± 0.033.

For BF4T:CCL26/Eotaxin-3, the “level (log10)” value in assay [1] (6700 nM) was -0.015 ± 0.018; in assay [1] (20000 nM), -0.0095 ± 0.026; in assay [1] (60000 nM), 0.009 ± 0.018; in assay [2] (6700 nM), -0.0775 ± 0.074; in assay [2] (20000 nM), -0.146 ± 0.056; in assay [2] (60000 nM), -0.126 ± 0.0064. The “level (log10)” value in assay [3] (6700 nM) was -0.0595 ± 0.026; in assay [3] (20000 nM) it was -0.155 ± 0.0085; in assay [3] (60000 nM) it was -0.192 ± 0.097; in assay [4] (1400 nM), 0.0215 ± 0.059; in assay [4] (4200 nM), 0.025 ± 0.058; in assay [4] (13000 nM), 0.007 ± 0.014. The “level (log10)” value in assay [4] (38000 nM) was -0.0025 ± 0.032; in assay [5] (6700 nM), -0.0005 ± 0.018; in assay [5] (20000 nM), -0.0295 ± 0.023; in assay [5] (60000 nM) it was -0.019 ± 0.02; in assay [6] (6700 nM), -0.0075 ± 0.0021; in assay [6] (20000 nM), -0.061 ± 0.0099.

As to 3C:HLA-DR, the “level (log10)” value in assay [1] (6700 nM) is -0.0055 ± 0.029; in assay [1] (20000 nM), -0.0155 ± 0.013; in assay [1] (60000 nM) it was -0.0105 ± 0.0092; in assay [2] (6700 nM) it was 0.0075 ± 0.0092; in assay [2] (20000 nM), 0.0075 ± 0.0021; in assay [2] (60000 nM), 0.0215 ± 0.0064. Also, the “level (log10)” value in assay [3] (6700 nM) is 0.0005 ± 0.011; in assay [3] (20000 nM), -0.0095 ± 0.021; in assay [3] (60000 nM), 0.0095 ± 0.023; in assay [4] (1400 nM), 0.006 ± 0.013; in assay [4] (4200 nM), -0.001 ± 0.021; in assay [4] (13000 nM), 0.005 ± 0.048. Further, the “level (log10)” value in assay [4] (38000 nM) was 0.005 ± 0.042; in assay [5] (6700 nM) it was 0.035 ± 0.013; in assay [5] (20000 nM), 0.0285 ± 0.0035; in assay [5] (60000 nM) it was -0.046 ± 0.058; in assay [6] (6700 nM) it was -0.001 ± 0.017; in assay [6] (20000 nM), 0.0155 ± 0.025.

Regarding SAg:CD40, the “level (log10)” value was -0.002 ± 0.0071 in assay [1] (6700 nM); -0.008 ± 0.011 in assay [1] (20000 nM); -0.015 ± 0.0042 in assay [1] (60000 nM); -0.005 ± 0.0057 in assay [2] (6700 nM); -0.0205 ± 0.039 in assay [2] (20000 nM); -0.032 ± 0.042 in assay [2] (60000 nM). Further, the “level (log10)” value in assay [3] (6700 nM) is -0.0165 ± 0.05; in assay [3] (20000 nM), -0.032 ± 0.038; in assay [3] (60000 nM), -0.054 ± 0.013; in assay [4] (1400 nM) it was -0.0125 ± 0.042; in assay [4] (4200 nM) it was -0.0095 ± 0.019; in assay [4] (13000 nM), -0.055 ± 0.025. The “level (log10)” value in assay [4] (38000 nM) was -0.118 ± 0.033; in assay [5] (6700 nM) it was -0.0225 ± 0.0064; in assay [5] (20000 nM), -0.0405 ± 0.0035; in assay [5] (60000 nM), -0.153 ± 0.018; in assay [6] (6700 nM), -0.006 ± 0.021; in assay [6] (20000 nM) it was -0.0065 ± 0.0092.
